T1: recombinant GTase A42 (Arabidopsis thaliana, UniProt O23401)
T1 construct: made in house; host or cells: E. coli
T1 sequence (O23401 1-479): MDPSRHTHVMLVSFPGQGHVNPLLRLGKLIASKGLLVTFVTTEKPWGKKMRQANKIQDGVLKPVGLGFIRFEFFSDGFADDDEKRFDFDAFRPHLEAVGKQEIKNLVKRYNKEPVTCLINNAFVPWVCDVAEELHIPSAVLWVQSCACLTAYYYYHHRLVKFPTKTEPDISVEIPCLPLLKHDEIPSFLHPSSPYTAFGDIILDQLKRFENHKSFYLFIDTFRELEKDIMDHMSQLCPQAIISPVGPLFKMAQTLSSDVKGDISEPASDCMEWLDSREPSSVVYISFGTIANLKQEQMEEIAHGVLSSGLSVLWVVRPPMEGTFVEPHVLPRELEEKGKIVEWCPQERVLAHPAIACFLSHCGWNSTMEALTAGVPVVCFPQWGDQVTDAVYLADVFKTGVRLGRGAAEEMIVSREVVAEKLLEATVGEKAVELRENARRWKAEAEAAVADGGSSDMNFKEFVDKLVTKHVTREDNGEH

T2: recombinant GTase A41 (Arabidopsis thaliana, UniProt Q5XF20)
T2 construct: made in house; host or cells: E. coli
T2 sequence (Q5XF20 7-490): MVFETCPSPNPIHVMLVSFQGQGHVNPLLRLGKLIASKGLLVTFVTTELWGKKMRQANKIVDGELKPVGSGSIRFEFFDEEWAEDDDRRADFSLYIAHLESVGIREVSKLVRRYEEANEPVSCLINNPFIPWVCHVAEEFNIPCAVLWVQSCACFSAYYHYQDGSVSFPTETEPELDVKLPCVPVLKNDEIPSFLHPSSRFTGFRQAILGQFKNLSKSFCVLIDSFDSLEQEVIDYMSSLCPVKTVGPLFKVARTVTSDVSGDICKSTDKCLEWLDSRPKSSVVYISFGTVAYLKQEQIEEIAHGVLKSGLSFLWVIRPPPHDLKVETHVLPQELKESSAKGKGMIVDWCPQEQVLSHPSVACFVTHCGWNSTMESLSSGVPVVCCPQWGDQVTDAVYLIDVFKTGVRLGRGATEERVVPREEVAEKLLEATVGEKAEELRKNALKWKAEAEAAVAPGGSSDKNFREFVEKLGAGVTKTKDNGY

T3: recombinant GTase A062 (Arabidopsis thaliana, UniProt Q9LR44)
T3 construct: made in house; host or cells: E. coli
T3 sequence (Q9LR44 1-469): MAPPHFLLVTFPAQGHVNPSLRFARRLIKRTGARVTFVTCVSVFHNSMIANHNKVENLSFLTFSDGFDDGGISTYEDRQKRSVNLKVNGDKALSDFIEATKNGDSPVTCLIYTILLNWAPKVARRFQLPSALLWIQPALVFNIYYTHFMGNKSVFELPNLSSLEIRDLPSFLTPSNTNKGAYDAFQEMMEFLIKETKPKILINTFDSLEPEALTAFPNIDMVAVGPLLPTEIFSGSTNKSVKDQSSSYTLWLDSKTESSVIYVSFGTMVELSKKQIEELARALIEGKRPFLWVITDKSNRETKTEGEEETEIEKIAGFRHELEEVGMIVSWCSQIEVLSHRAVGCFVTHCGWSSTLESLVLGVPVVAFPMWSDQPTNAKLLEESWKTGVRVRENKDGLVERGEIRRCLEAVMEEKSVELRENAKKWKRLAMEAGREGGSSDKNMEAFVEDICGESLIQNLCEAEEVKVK

T4: recombinant GTase A911 (Arabidopsis thaliana, UniProt O22182)
T4 sequence (O22182 1-456): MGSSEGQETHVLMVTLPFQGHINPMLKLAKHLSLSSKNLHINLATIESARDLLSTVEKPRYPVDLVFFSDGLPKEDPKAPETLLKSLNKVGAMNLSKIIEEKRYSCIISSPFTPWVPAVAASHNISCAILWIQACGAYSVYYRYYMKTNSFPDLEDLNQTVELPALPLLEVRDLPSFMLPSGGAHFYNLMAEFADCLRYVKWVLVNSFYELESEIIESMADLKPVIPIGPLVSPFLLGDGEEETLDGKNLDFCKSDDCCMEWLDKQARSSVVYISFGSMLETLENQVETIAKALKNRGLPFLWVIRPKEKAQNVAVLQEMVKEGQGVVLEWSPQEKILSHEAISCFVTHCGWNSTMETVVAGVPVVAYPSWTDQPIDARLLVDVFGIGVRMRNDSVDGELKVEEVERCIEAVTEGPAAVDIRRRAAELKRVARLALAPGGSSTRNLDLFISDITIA

T5: recombinant GTase A320 (Arabidopsis thaliana, UniProt Q9LVF0)
T5 construct: made in house; host or cells: E. coli
T5 sequence (Q9LVF0 1-496): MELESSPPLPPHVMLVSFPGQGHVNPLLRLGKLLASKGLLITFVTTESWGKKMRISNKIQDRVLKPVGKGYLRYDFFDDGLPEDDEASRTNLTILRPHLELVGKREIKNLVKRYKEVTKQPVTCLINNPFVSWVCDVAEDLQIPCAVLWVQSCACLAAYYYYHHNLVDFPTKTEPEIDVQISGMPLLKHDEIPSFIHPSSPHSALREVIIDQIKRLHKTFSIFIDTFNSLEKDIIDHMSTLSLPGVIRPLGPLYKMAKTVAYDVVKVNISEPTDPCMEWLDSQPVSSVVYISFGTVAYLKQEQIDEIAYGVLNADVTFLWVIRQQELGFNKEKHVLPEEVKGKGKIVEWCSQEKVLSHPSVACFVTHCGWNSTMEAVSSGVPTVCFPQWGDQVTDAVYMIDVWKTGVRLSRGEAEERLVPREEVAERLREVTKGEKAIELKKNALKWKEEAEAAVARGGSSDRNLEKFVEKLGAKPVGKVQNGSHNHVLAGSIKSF

B1: recombinant GTase A062 (Arabidopsis thaliana) (protein)
chain: T3 sequence (Q9LR44 1-469)
notes: made in house; host or cells: E. coli

Columns and labels:
[1] = target: T6, recombinant GTase A43 (Arabidopsis thaliana, UniProt O23402); experiment: Specific activity of recombinant GTase producing glucose ester against lignin precursors (HPLC); type: biochemical; details: 0.5 ml of potential substrates, 5 mM UDPG, 0.2 μg GTase, 200 μl, 20° C., 30 min
T6 construct: made in house; host or cells: E. coli

[2] = target: T1, recombinant GTase A42; experiment: Kinetic studies (Michaelis-Menten) on recombinant GTase producing glucose esters; type: biochemical; details: glucose ester formation
[3] = target: T2, recombinant GTase A41; experiment: Specific activity of recombinant GTase producing glucose ester against lignin precursors (HPLC); type: biochemical; details: 5 mM UDPG, 0.2 μg GTase, 200 μl, 20° C., 30 min
[4] = target: T3, recombinant GTase A062; experiment: as above; type: biochemical; details: 0.5 ml of potential substrates, 5 mM UDPG, 0.2 μg GTase, 200 μl, 20° C., 30 min
[5] = target: T4, recombinant GTase A911; experiment: Kinetic studies (Michaelis-Menten) on recombinant GTase producing glucose esters; details: glucose ester formation
[6] = target: T5, recombinant GTase A320; experiment: Specific activity of recombinant GTase producing glucose ester against lignin precursors (HPLC); type: biochemical; details: 5 mM UDPG, 0.2 μg GTase, 200 μl, 20° C., 30 min
[7] = target: T1, recombinant GTase A42; experiment: as above; type: biochemical; details: 0.5 ml of potential substrates, 5 mM UDPG, 0.2 μg GTase, 200 μl, 20° C., 30 min
[8] = target: T4, recombinant GTase A911; experiment: as above; type: biochemical; parameters: made in house; host or cells: E. coli; details: 0.5 ml of potential substrates, 5 mM UDPG, 0.2 μg GTase, 200 μl, 20° C., 30 min
[9] = substrate: O=C(O)C=Cc1ccccc1; experiment: Kinetic studies (Michaelis-Menten) on recombinant GTase producing glucose esters; type: biochemical, Arabidopsis thaliana; details: other: glucose ester formation; pH 7.0; 30.0 °C
[10] = substrate: O=C(O)/C=C/c1ccc(O)cc1; experiment: as above; type: biochemical, Arabidopsis thaliana; details: other: glucose ester formation; pH 7.0; 30.0 °C

Molecule | Specific activity of A43 (substrate converted to glucose ester) [1] | Vmax (A42) [2] | Specific activity of A41 (substrate converted to glucose ester) [3] | Specific activity of A062 (substrate converted to glucose ester) [4] | Vmax (A911) [5] | Specific activity of A320 (substrate converted to glucose ester) [6] | Specific activity of A42 (substrate converted to glucose ester) [7] | Specific activity of A911 (substrate converted to glucose ester) [8] | Km [9] | Vmax [9] | Km [10] | Vmax [10]
O=C(O)C=Cc1ccccc1 [Cinnamic acid, cinnamic acid] | 0.02 nkat/mg | 19.42 nkat/mg | 0.30 nkat/mg | 1.62 nkat/mg | 9.06 nkat/mg | 0.06 nkat/mg | 14.21 nkat/mg | 8.77 nkat/mg |  |  |  | 
B1 |  |  |  |  |  |  |  |  | 4.33 mM | 2.87 nkat/mg | 5.05 mM | 4.91 nkat/mg

Source: US7335814B2, “Transgenic cells expressing glucosyltransferase nucleic acids” (The University of York, priority 2000, dated 2008)
